Experimental data: patent US20040242591A1, “Oxazolidinone derivatives as pontential antimicrobials” (priority 2001, published 2004)

How the values were obtained:
[1] = tested on: Strep.pyog. ATCC 19615; assay: MIC by agar incorporation method, S.pyogenes 19615; type: cell-based, Streptococcus pyogenes; parameters: unit not given here; settings: Mueller Hinton agar, 10^4 CFU/spot, 18 hours
Text: 6) Strep.pyog. ATCC 19615—Streptococcus pyogenes

[2] = tested on: MRSA 33; assay: MIC by agar incorporation method, MRSA 33; type: cell-based, Methicillin Resistant Staphylococcus aureus; parameters: unit not given here; settings: Mueller Hinton agar, 10^4 CFU/spot, 24 hours
[3] = tested on: Strep. pne. ATCC 6303; assay: MIC by agar incorporation method, S. pneum 6303; type: cell-based, Streptococcus pneumoniae; settings: Mueller Hinton agar, 10^4 CFU/spot, 18 hours
Text: 5) Strep. pne. ATCC 6303—Streptococcus pneumoniae ATCC 6303

[4] = tested on: S.aureus ATCC 25923; assay: MIC by agar incorporation method, S.aureus 25923; type: cell-based, Staphylococus aureus; parameters: unit not given here; settings: Mueller Hinton agar, 10^4 CFU/spot, 18 hours
[5] = tested on: VRE 6A; assay: MIC by agar incorporation method, VRE 6A; type: cell-based, Enterococcus faecium; parameters: unit not given here; settings: Mueller Hinton agar, 10^4 CFU/spot, 18 hours
Text: 4) Ent. faecium […]—Enterococcus faecium 6A Van®, Cipro®

[6] = tested on: S. pneum AB 34; assay: MIC by agar incorporation method, S. pneum AB 34; type: cell-based, Streptococcus pneumoniae; parameters: unit not given here; settings: Mueller Hinton agar, 10^4 CFU/spot, 18 hours
[7] = tested on: MRSA 15187; assay: MIC by agar incorporation method, MRSA 15187; type: cell-based, Methicillin Resistant Staphylococcus aureus; parameters: unit not given here; settings: Mueller Hinton agar, 10^4 CFU/spot, 24 hours
Text: 2) MRSA 15187—Methicillin Resistant Staphylococcus aureus

[8] = tested on: Ent. faecalis ATCC 29212; assay: MIC by agar incorporation method, E.faecalis 29212; type: cell-based, Enterococcus faecalis; parameters: unit not given here; settings: Mueller Hinton agar, 10^4 CFU/spot, 18 hours
Text: 3) Ent. faecalis ATCC 29212—Enterococcus faecalis ATCC 29212

[9] = tested on: MRSA 562; assay: MIC by agar incorporation method, MRSA 562; type: cell-based, Methicillin Resistant Staphylococcus aureus; parameters: unit not given here; settings: Mueller Hinton agar, 10^4 CFU/spot, 24 hours

SMILES	In Vitro (MIC) S.pyogenes 19615 [1]	In Vitro (MIC) MRSA 33 [2]	In Vitro (MIC) S. pneum 6303 [3] [µg/mL]	In Vitro (MIC) S.aureus 25923 [4]	In Vitro (MIC) VRE 6A [5]	In Vitro (MIC) S. pneum AB 34 [6]	In Vitro (MIC) MRSA 15187 [7]	In Vitro (MIC) E.faecalis 29212 [8]	In Vitro (MIC) MRSA 562 [9]
CC(=O)NC[C@H]1CN(c2ccc(N3CCN(C(=O)C=Cc4ccc([N+](=O)[O-])s4)CC3)c(F)c2)C(=O)O1 [Compound No. 40, (S)-N-[[3-[3-Fluoro-4-[N-1-[4-{2-thiophenoyl-(5-nitro)acrylic}]piperazinyl]phenyl]-2-oxo-5-oxazolidinyl]methyl]-acetamide]	0.5	0.5	1	0.5	0.5	1	0.25	1	1
CC(=O)NC[C@H]1CN(c2ccc(N3CCN(C(=O)c4oc([N+](=O)[O-])cc4C)CC3)c(F)c2)C(=O)O1 [Compound No. 37, (S)-N-[[3-[3-Fluoro-4-[N-1-[4-{2-furoyl-(3-methyl-5-nitro)}]piperazinyl]phenyl]-2-oxo-5-oxazolidinyl]methyl]acetamide]	<0.06	0.5	0.25	0.5	0.5	0.125	0.5	0.25	0.5
CC(=O)NC[C@H]1CN(c2ccc(N3CCN(C(C)c4ccc([N+](=O)[O-])s4)CC3)c(F)c2)C(=O)O1 (stereo partly drawn) [Compound No. 100]	2	0.5	2	0.5	0.5	2	0.5	0.5	0.5
CC(=O)NC[C@H]1CN(c2ccc(N3CCN(C(=O)c4ccc(-c5ccc(Cl)cc5[N+](=O)[O-])o4)CC3)c(F)c2)C(=O)O1 [Compound No. 35]	1	1	1	1	1	1	1	0.5	1
CC(=O)NC[C@H]1CN(c2ccc(N3CCN(Cc4oc(C=O)cc4C)CC3)c(F)c2)C(=O)O1 [Compound No. 71]	>8	4	>8	4	>8	>8	2	>8	2
CC(=O)NC[C@H]1CN(c2ccc(N3CCN(C(=O)Cc4cccs4)C(C)C3)c(F)c2)C(=O)O1 (stereo partly drawn) [Compound No. 68, (S)-N-[[3-[3-Fluoro-4-[N-1-[3-methyl-4-{2-thienylacetyl-}]-piperazinyl]phenyl]-2-oxo-5-oxazolidinyl]methyl]acetamide]	2	4	4	4	4	4	4	4	4
O=C(NC[C@H]1CN(c2ccc(N3CCN(Cc4ccc([N+](=O)[O-])o4)CC3)c(F)c2)C(=O)O1)C(F)F [Compound No. 45, (S)-N-[[3-[3-Fluoro-4-[N-1-[4-{2-furyl(5-nitro)methyl}]piperazinyl]phenyl]-2-oxo-5-oxazolidinyl]methyl]-difluoroacetamide]	0.5	2	0.5	2	2	2	1	2	2

Second part, the compound after the results:

In Vitro (MIC) S.pyogenes 19615 [1]	In Vitro (MIC) MRSA 33 [2]	In Vitro (MIC) S. pneum 6303 [3] [µg/mL]	In Vitro (MIC) S.aureus 25923 [4]	In Vitro (MIC) VRE 6A [5]	In Vitro (MIC) S. pneum AB 34 [6]	In Vitro (MIC) MRSA 15187 [7]	In Vitro (MIC) E.faecalis 29212 [8]	In Vitro (MIC) MRSA 562 [9]	SMILES
4	4	8	4	4	16	4	4	2	CC(=O)NC[C@H]1CN(c2ccc(N3CCN(Cc4ccc([N+](=O)[O-])o4)CC3C)c(F)c2)C(=O)O1 (stereo partly drawn) [Compound No. 58, (S)-N-[[3-[3-Fluoro-4-[N-1-[2-methyl-4-{2-furyl(5-nitro)methyl}]-piperazinyl]phenyl]-2-oxo-5-oxazolidinyl]methyl]acetamide]
2	1	8	1	0.5	8	1	0.5	0.5	CC(=O)NC[C@H]1CN(c2ccc(N3CCN(C(=O)c4ccc([N+](=O)[O-])o4)C(C)C3)c(F)c2)C(=O)O1 (stereo partly drawn) [Compound No. 69, (S)-N-[[3-[3-Fluoro-4-[N-1-[3-methyl-4-{2-furoyl-(5-nitro)}]-piperazinyl]phenyl]-2-oxo-5-oxazolidinyl]methyl]acetamide]
8	1	8	2	2	8	1	1	1	CC(=O)NC[C@H]1CN(c2ccc(N3CCN(C(=O)c4ccc([N+](=O)[O-])o4)CC3C)c(F)c2)C(=O)O1 (stereo partly drawn) [Compound No. 59, (S)-N-[[3-[3-Fluoro-4-[N-1-[2-methyl-4-{2furoyl-(5-nitro)}]-piperazinyl]phenyl]-2-oxo-5-oxazolidinyl]methyl]acetamide]
	1		1	0.5		1	<0.25	0.5	CC(=O)NC[C@H]1CN(c2ccc(N3CCC(CN(C)Cc4ccc([N+](=O)[O-])o4)CC3)c(F)c2)C(=O)O1 [Compound No. 95]
2	>8	4	>8	8	4	>8	>8	>8	CC(=O)NC[C@H]1CN(c2ccc(N3CC4C(CNCc5ccc([N+](=O)[O-])o5)C4C3)c(F)c2)C(=O)O1 (stereo partly drawn) [Compound No. 99, (S)-N-[[3-[3-Fluoro-4[N-1-[3-{N-2-furyl-(5-nitro)methyl}-aminomethyl]-3-azabicyclo[3.1.0]hexane]phenyl]-2-oxo-5-oxazolidinyl]methyl]acetamide]
4	2	8	2	0.25	8	0.5	0.25	1	CC(=O)NC[C@H]1CN(c2ccc(N3CCCN(C(=O)c4ccc([N+](=O)[O-])o4)CC3)c(F)c2)C(=O)O1 [Compound No. 55, (S)-N-[[3-[3-Fluoro-4-[N-1-[4-{2-furoyl-(5-nitro)}]homopiperazinyl]phenyl]-2-oxo-5-oxazolidinyl]methyl]acetamide]
1	2	2	2	2	2	2	1	2	CC(=O)NC[C@H]1CN(c2ccc(N3CCC(NCc4ccc([N+](=O)[O-])s4)CC3)c(F)c2)C(=O)O1 [Compound No. 84, (S)-N-[[3-[3-Fluoro-4-[4-{N-thienyl-(5-nitro)methyl}-aminopiperidine-1-yl]phenyl]-2-oxo-5-oxazolidinyl]methyl]acetamide]
2	1	4	1	1	4	1	1	0.5	CCN(C(=O)c1ccc([N+](=O)[O-])o1)C1CCN(c2ccc(N3C[C@H](CNC(C)=O)OC3=O)cc2F)CC1 [Compound No. 80, (S)-N-[[3-[3-Fluoro-4-[4-{N-ethyl-2-furoyl-(5-nitro)}aminopiperidine-1-yl]phenyl]-2-oxo-5-oxazolidinyl]methyl]acetamide]
